Assay results: patent publication US20160115540A1, “PRODRUGS AND DRUGS” (Biogen MA Inc., priority 2013, published 2016)
Where a name gives a salt, the structure may show the parent alone.

Test system: kidney
Experiment: Transcriptional profiling on Affymetrix GeneChips, single dose, naïve mice: kidney
Type: in vivo, C57BL/6 mice
Settings: 100MMF-vs-Veh
Description: Treated mice were sacrificed at 2, 7, or 12 hours. Tissues (liver, spleen, kidney, jejunum, cortex, hippocampus, striatum and whole blood) were collected and analyzed by transcriptional profiling on mouse Affymetrix GeneChips.
Tissues (liver, spleen, kidney, jejunum, cortex, hippocampus, striatum and whole blood) were collected and analyzed by transcriptional profiling on mouse Affymetrix GeneChips.
Animals were exposed to CO2 and whole blood collected via cardiac puncture. Two 100 μl aliquots of whole blood were collected in 1.5 mL microcentrifuge tubes and snap frozen in liquid nitrogen. Peripheral (liver, spleen, kidney and jejunum) and CNS brain (cerebellum, hippocampus, striatum and cortex) tissues were harvested and snap frozen in liquid nitrogen, with special care taken to collect tissues of similar size and from the same location. All samples were stored at −80° C. until RNA extraction was conducted.
For RNA preparation, frozen tissues were placed in 2 mL RNAse-free 96-well blocks with 1.5 mL QIAzol Lysis Reagent (QIAgen) and a 3.2 mm stainless steel bead (BioSpec Products, Bartlesville, Okla.). Tissues were disrupted for four cycles of 45 seconds in a Mini-Beadbeater (Biospec Products). RNA was extracted in chloroform and the aqueous phase was mixed with an equal volume of 70% ethanol. Extracted RNA was applied to RNeasy 96 plates and purified by the spin method according to the manufacturer's protocol (RNeasy 96 Universal Tissue Protocol, QIAgen, Hilden Germany).
Automated sample amplifications and biotin labelings were carried out using the NuGEN Ovation RNA Amplification system V2 (Cat #3100), Ovation WB reagent (Cat #1300) and Encore Biotin module (Cat #4200) (NuGEN Technologies, Inc, San Carlos, Calif.) according to manufacturer's recommendations using an Arrayplex automated liquid handler (Beckman Coulter, Indianapolis, Ind.). Two micrograms of biotin labeled sscDNA probe were hybridized to Affymetrix GeneChip Affymetrix HT_MG-430_PM plate arrays with modified conditions as described in Allaire et al. Washing and staining of the hybridized arrays were completed as described in the GeneChip Expression analysis technical manual for HT plate arrays using the Genechip® Array Station (Affymetrix, Santa Clara, Calif.) with modifications as described in Allaire et al. The processed GeneChip® plate arrays were scanned using GeneTitan scanner (Affymetrix, Santa Clara, Calif.).
Affymetrix scans were subject to quality control (QC) measures. These tests included a visual inspection of the distribution of raw signal intensities and an assessment of RNA degradation, relative log expression (RLE), and normalized unsealed standard error (NUSE). All sample scans that passed these QC metrics were included in the analysis.
All CEL files were subjected to GC-content-based Robust Multi-array Average (GCRMA) normalization (version 2.20.0) (Irizarry R A, et al. Nucleic Acids Res 2003; 31:e15; Li C, et al. Genome Biol 2001; 2:[…]0032). Expression levels were log (base 2) transformed.
All calculations and analyses were carried out using R (version 2.11.1) and Bioconductor computational tools (Gentleman R. Springer Science+Business Media 2005).

COC(=O)/C=C/C(=O)O [MMF, monomethyl fumarate]
FC Gsr (1421816_PM_at) (7 h): 1.83 | FC Gsta3 (1423436_PM_at) (7 h): 1.99 | FC Gsta3 (1423437_PM_at) (7 h): 2.95 | FC Gsta4 1416368_PM_at (7 h): 1.85 | FC Havcr1 1434716_PM_at (7 h): 3.22 | FC Hfe 1450702_PM_at (7 h): 1.57 | FC Hist1h2be 1440330_PM_at (7 h): 1.98 | FC Hist2h3c1 1442051_PM_at (7 h): 1.65 | FC Hmox1 1448239_PM_at (7 h): 7.48 | FC Hsp90aa1 1426645_PM_at (7 h): 1.50 | FC Ido2 1425778_PM_at (7 h): −1.52 | FC Ikbkg 1421209_PM_s_at (7 h): 1.77 | FC Ikbkg 1435646_PM_at (7 h): 1.80 | FC Ikbkg 1454690_PM_at (7 h): 1.61 | FC Il18 1417932_PM_at (7 h): −1.52 | FC Kif20b 1439695_PM_a_at (7 h): −2.61 | FC Lcp1 1415983_PM_at (7 h): 1.59 | FC Lcp1 1448160_PM_at (7 h): 1.56 | FC Lpar2 1442291_PM_at (7 h): 1.84 | FC Lrp8 (1440882_PM_at) (7 h): 2.19 | FC Mctp2 1457707_PM_at (7 h): 1.54 | FC Mfsd2a 1428223_PM_at (7 h): −3.38 | FC Mt1 1422557_PM_s_at (7 h): 1.89 | FC Mt2 1428942_PM_at (7 h): 2.71 | FC Mthfd2 1419253_PM_at (7 h): 1.89 | FC Mthfd2 1419254_PM_at (7 h): 1.68 | FC Napsa 1430744_PM_at (7 h): −1.79 | FC Ndrg1 1423413_PM_at (7 h): 1.52 | FC Ndrg1 1450977_PM_s_at (7 h): 1.54 | FC Nmral1 1430530_PM_s_at (7 h): −1.52 | FC Nqo1 (1423627_PM_at) (7 h): 1.96 | FC Nrg1 1456524_PM_at (7 h): 1.81 | FC Nudt11 1426887_PM_at (7 h): 1.62 | FC Pank1 1457110_PM_at (7 h): −1.79 | FC Pank2 1452733_PM_at (7 h): −1.94 | FC Pard3 1434775_PM_at (7 h): 1.53 | FC Pfkfb4 1456888_PM_at (7 h): 1.69 | FC Pgd 1423706_PM_a_at (7 h): 2.21 | FC Pgd 1438627_PM_x_at (7 h): 1.78 | FC Pgd (1436771_PM_x_at) (7 h): 1.87 | FC Pgd (1437380_PM_x_at) (7 h): 1.87 | FC Pir (1429001_PM_at) (7 h): 2.63 | FC Ppm1e 1434990_PM_at (7 h): −1.53 | FC Rab38 1417700_PM_at (7 h): −1.57 | FC Rassf6 1429262_PM_at (7 h): 1.65 | FC Rdh10 1460632_PM_at (7 h): 1.68 | FC Rhof 1455902_PM_x_at (7 h): 1.66 | FC Rnf24 1436101_PM_at (7 h): −2.03 | FC Rock2 1451041_PM_at (7 h): 1.60 | FC Rundc3b 1434456_PM_at (7 h): 1.54 | FC Sema3c 1420696_PM_at (7 h): 1.66 | FC Slc7a1 1454992_PM_at (7 h): 1.62 | FC Slc9a8 1454865_PM_at (7 h): −1.68 | FC Slc16a6 1417884_PM_at (7 h): 1.55 | FC Slc20a1 1448568_PM_a_at (7 h): 1.70 | FC Slc40a1 1448566_PM_at (7 h): 1.51 | FC Slc48a1 1450410_PM_a_at (7 h): 1.58 | FC Smcp 1418358_PM_at (7 h): −1.96 | FC Sphk2 1426230_PM_at (7 h): −1.54 | FC Sqstm1 1450957_PM_a_at (7 h): 1.62 | FC Srxn1 (1419942_PM_at) (7 h): 2.45 | FC Srxn1 (1425351_PM_at) (7 h): 2.92 | FC Srxn1 (1426875_PM_s_at) (7 h): 2.29 | FC Srxn1 (1451680_PM_at) (7 h): 2.68 | FC Syn3 1435311_PM_s_at (7 h): −1.68 | FC Tardbp 1423723_PM_s_at (7 h): 1.62 | FC Tcte2 1425009_PM_at (7 h): −1.61 | FC Tiam2 1423186_PM_at (7 h): 2.27 | FC Tmem86a 1428758_PM_at (7 h): −1.56 | FC Tnfrsf12a 1418571_PM_at (7 h): 2.40 | FC Tnfrsf12a 1418572_PM_x_at (7 h): 2.45 | FC Trim7 1425743_PM_at (7 h): −1.59 | FC Trim7 1439352_PM_at (7 h): −1.55 | FC Tubb2a 1427347_PM_s_at (7 h): 1.52 | FC Txnrd1 1421529_PM_a_at (7 h): 1.72 | FC Txnrd1 (1424486_PM_a_at) (7 h): 3.08 | FC Txnrd1 (1424487_PM_x_at) (7 h): 2.37 | FC Upp2 1424969_PM_s_at (7 h): −3.63 | FC Upp2 1451548_PM_at (7 h): −4.00 | FC Uxs1 1426275_PM_a_at (7 h): 1.50 | FC Vwa1 1426399_PM_at (7 h): −1.69 | FC Wdr90 1426767_PM_at (7 h): −1.58 | FC Wnt5a 1436791_PM_at (7 h): 1.69 | FC Wnt5a 1448818_PM_at (7 h): 1.81 | FC Acot1 /// Acot2 1422997_PM_s_at (12 h): 1.51 | FC Aldh1a1 1416468_PM_at (12 h): 2.21 | FC Aldh1a7 (1418601_PM_at) (12 h): 3.02 | FC Aox1 (1419435_PM_at) (12 h): 2.23 | FC Arg2 1418847_PM_at (12 h): 2.70 | FC Atp11a 1421167_PM_at (12 h): −1.62 | FC C1qtnf3 1422606_PM_at (12 h): −1.57 | FC Cyp51 1422533_PM_at (12 h): −1.95 | FC Cyp51 1422534_PM_at (12 h): −1.79 | FC Egln3 1418649_PM_at (12 h): 1.71 | FC G6pd2 /// G6pdx 1422327_PM_s_at (12 h): 1.91 | FC Gbe1 1420654_PM_a_at (12 h): 1.51 | FC Gdf15 1418949_PM_at (12 h): 2.01 | FC Gm3776 /// Gsta1 /// Gsta2 1421041_PM_s_at (12 h): 1.68 | FC Gpr19 1421756_PM_a_at (12 h): 1.50 | FC Gsta2 (1421040_PM_a_at) (12 h): 1.61 | FC Gsta3 (1423436_PM_at) (12 h): 1.95 | FC Gsta3 (1423437_PM_at) (12 h): 2.85 | FC Gsta4 1416368_PM_at (12 h): 1.95
